Test results from ChEMBL document CHEMBL5150060 (J Med Chem, 2022).
Activity calls are given as the source filed them. The rule behind the calls is not given here.

Columns and labels:
[1] = target: T1, Histone deacetylase 8 (Homo sapiens, UniProt Q9BY41); test: Competitive inhibition of human HDAC8 using Abz-SRGGK(STFA)FFRR-NH2 (S) as substrate by Lineweaver-burk plot analysis
T1 sequence (Q9BY41 whole entry): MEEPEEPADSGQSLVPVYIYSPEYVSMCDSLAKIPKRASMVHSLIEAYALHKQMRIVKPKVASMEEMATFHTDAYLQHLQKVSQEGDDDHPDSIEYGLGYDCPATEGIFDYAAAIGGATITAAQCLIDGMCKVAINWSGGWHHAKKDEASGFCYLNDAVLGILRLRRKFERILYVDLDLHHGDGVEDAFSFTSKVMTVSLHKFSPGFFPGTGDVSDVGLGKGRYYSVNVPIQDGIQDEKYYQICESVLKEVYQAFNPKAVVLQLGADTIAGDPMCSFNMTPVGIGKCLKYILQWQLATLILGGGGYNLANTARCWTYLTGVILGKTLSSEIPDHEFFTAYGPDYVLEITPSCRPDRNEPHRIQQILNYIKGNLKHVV

[2] = target: T2, Histone deacetylase 8 (Homo sapiens) (UniProt Q9BY41); test: Inhibition of HDAC8 in human Jurkat T cells assessed as upregulation of PRDM1 expression at 10 uM after 6 to 12 hrs by RT-qPCR analysis; assay type: cell-based; settings: time 6-12 hrs
T2 sequence (whole entry): T1 sequence (Q9BY41 whole entry)

[3] = test system: HEK293; test: Cytotoxicity against HEK293 cells assessed as reduction in cell viability at 50 uM after 24 hrs by alamar blue assay; assay type: toxicity, cell-based; settings: human, hek293, 24 h
[4] = target: T2, Histone deacetylase 8 (Homo sapiens); test: Inhibition of HDAC8 in human Jurkat T cells assessed as upregulation of BCL6 expression at 10 uM after 6 to 12 hrs by RT-qPCR analysis; assay type: cell-based; settings: time 6-12 hrs
[5] = Toxicity in C57BL/6 mouse assessed as change in liver weight at 5 to 10 mg/kg, ip administered 5 days per week for 2 weeks by H and E staining based assay; assay type: organism-based; settings: in vivo, 336 h, dose 5-10 mg/kg
[6] = Toxicity in C57BL/6 mouse assessed as change in stomach weight at 5 to 10 mg/kg, ip administered 5 days per week for 2 weeks by H and E staining based assay; assay type: organism-based; settings: in vivo, 336 h, dose 5-10 mg/kg
[7] = target: T3, Protein deacetylase HDAC6 (Mus musculus) (UniProt Q9Z2V5); test: Inhibition of HDAC6 in mouse spleen CD4+ T- lymphocytes assessed as increase in H3K27 acetylation level at 5 to 10 uM after 6 hrs by Western blot analysis; assay type: cell-based; settings: CD4+ve Th, dose 5-10 µM
T3 sequence (whole entry): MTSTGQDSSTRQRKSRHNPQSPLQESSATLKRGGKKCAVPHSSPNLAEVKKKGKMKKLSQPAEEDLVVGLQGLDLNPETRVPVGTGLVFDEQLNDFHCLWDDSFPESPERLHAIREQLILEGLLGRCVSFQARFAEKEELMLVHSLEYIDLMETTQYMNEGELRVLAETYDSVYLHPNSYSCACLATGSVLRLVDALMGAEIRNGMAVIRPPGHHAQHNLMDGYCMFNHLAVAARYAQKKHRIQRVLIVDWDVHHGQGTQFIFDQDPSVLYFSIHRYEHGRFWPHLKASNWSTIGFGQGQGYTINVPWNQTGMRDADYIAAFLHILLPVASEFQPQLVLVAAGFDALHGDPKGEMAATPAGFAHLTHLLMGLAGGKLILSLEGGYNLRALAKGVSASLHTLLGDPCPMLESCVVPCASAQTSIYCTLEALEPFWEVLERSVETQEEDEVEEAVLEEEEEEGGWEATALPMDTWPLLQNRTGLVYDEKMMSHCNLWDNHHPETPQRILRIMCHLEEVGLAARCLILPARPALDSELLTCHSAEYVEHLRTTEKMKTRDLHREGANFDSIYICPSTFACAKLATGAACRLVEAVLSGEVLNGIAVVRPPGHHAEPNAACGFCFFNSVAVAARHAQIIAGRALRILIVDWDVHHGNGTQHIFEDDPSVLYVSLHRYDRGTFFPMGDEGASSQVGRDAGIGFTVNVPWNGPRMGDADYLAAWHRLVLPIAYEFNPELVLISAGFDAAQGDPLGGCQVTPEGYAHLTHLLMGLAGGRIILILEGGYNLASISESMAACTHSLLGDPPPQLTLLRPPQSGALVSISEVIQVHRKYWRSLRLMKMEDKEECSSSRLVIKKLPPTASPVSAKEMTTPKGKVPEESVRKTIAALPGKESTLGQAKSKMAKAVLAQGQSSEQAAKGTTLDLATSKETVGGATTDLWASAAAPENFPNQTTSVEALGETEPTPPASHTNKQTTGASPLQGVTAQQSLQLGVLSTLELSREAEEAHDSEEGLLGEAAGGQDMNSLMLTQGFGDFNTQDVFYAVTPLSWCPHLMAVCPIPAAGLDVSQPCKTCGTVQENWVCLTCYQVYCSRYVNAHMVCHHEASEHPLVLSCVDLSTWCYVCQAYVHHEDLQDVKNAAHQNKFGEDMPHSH

[8] = target: T2, Histone deacetylase 8 (Homo sapiens); test: Reversible binding affinity to recombinant human HDAC8 incubated for 30 mins by jump dilution method
[9] = target: T2, Histone deacetylase 8 (Homo sapiens); test: Inhibition of HDAC8 in human Jurkat T cells assessed as upregulation of EOMES expression after 6 hrs by RT-qPCR analysis; assay type: cell-based; settings: dose 0.1-10 µM, DDE = dose-dependent effect
[10] = target: T2, Histone deacetylase 8 (Homo sapiens); test: Inhibition of HDAC8 in human Jurkat T cells assessed as upregulation of PRDM1 expression after 6 hrs by RT-qPCR analysis; assay type: cell-based; settings: dose 0.1-10 µM, DDE = dose-dependent effect
[11] = target: T4, Histone deacetylase 11 (Homo sapiens, UniProt Q96DB2); test: Inhibition of recombinant human HDAC11 preincubated for 10 mins followed by substrate addition by fluorescence based analysis
T4 sequence (Q96DB2 whole entry): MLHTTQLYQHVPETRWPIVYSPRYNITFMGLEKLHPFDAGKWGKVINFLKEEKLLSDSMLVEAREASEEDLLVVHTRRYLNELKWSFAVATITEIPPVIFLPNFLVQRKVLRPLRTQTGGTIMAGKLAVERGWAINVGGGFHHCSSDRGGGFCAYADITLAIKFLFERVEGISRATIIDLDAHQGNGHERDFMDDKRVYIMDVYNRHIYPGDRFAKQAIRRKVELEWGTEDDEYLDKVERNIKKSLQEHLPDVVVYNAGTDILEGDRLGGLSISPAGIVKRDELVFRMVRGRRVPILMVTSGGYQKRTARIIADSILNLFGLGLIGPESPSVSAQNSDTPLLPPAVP

[12] = target: T2, Histone deacetylase 8 (Homo sapiens); test: Inhibition of HDAC8 in human Jurkat T cells assessed as upregulation of IL5 expression at 10 uM after 6 to 12 hrs by RT-qPCR analysis; assay type: cell-based; settings: time 6-12 hrs
[13] = target: T2, Histone deacetylase 8 (Homo sapiens); test: Inhibition of HDAC8 in human Jurkat T cells assessed as upregulation of TBX21 expression after 6 hrs by RT-qPCR analysis; assay type: cell-based; settings: dose 0.1-10 µM, DDE = dose-dependent effect
[14] = target: Histone deacetylase 2 (Homo sapiens, UniProt Q92769); test: Inhibition of recombinant human HDAC2 using p53 (Ac-RHKK(Acetyl)-AMC) as substrate preincubated for 5 mins followed by substrate addition and measured after 30 mins by fluorescence based analysis
[15] = target: T2, Histone deacetylase 8 (Homo sapiens); test: Inhibition of HDAC8 in human Jurkat T cells assessed as upregulation of IL-7R expression after 6 hrs by RT-qPCR analysis; assay type: cell-based; settings: dose 0.1-10 µM, DDE = dose-dependent effect

Sequence of Histone deacetylase 2 (Q92769 whole entry): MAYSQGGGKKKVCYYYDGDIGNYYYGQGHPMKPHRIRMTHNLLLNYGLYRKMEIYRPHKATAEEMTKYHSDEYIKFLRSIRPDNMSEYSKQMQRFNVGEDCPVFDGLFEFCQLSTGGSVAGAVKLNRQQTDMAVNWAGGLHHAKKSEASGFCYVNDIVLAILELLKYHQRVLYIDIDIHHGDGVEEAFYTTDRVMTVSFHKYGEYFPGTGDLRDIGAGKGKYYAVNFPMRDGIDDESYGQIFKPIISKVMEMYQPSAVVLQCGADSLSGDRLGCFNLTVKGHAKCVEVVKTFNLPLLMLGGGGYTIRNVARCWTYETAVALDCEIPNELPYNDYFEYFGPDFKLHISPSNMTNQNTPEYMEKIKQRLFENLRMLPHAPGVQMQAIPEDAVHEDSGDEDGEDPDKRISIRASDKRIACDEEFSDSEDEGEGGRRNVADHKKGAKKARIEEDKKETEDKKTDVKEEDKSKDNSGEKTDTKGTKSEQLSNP

In the case of `CCCCCCNNC(=O)c1ccc(-c2ccc(CNC(C)=O)cc2)cc1`, the Ki [1] is reported as 30.6 nM, the inhibition [2] is reported as “Active” and the Cell viability [3] is reported as 121.3%. For the same compound, the inhibition [4] was “Active”, the Activity [5] was “Non-Toxic” and the Activity [6] was “Non-Toxic”. The inhibition [7] was “Active”, the Activity [8] was “Active” and the inhibition [9] was “Dde”. The inhibition [10] was “Dde”, the IC50 [11] was 180 nM and the inhibition [12] was “Active”. The inhibition [13] was “Dde”, the IC50 [14] was 12000 nM and the inhibition [15] was “Dde”.
